Results reported in patent publication US11554182B2, “Macrocyclic complexes of alpha-emitting radionuclides and their use in targeted radiotherapy of cancer” (CORNELL UNIVERSITY, priority 2017, dated 2023).

Assay: In vivo biodistribution of ^225Ac complexes after intravenous injection
Set-up: species or system C57BL/6 mice
Description: In Vivo Biodistribution of ^225Ac Complexes of Macropa and DOTA. All experiments were approved by the Institutional Animal Care Committee (IACC) of the University of British Columbia and were performed in accordance with the Canadian Council on Animal Care Guidelines. A total of 9 female C57BL/6 mice (6-8 weeks old, 20-25 g) were used for the biodistribution study of each radiometal complex, n=3 for each time point.
Macropa (100 μL of a 1 mg/mL solution in NH4OAc) was diluted with 387 μL of NH4OAc (1 M, pH 7), and an aliquot (203 μL) of ^225Ac(NO3)3 (˜157 kBq) was then added; the pH of this solution was adjusted to 6.5-7 by the addition of 1 M NaOH (210 μL, trace metal grade). After 5 min at ambient temperature, the reaction solution was analyzed by TLC (0.4 M pH 4 sodium citrate as the eluent), which confirmed >95% radiochemical yield. The reaction was allowed to proceed overnight, and the radiochemical yield was again confirmed to be >95% the following morning. At this time, mice were anesthetized by 2% isoflurane, and approximately 100 μL (10-15 kBq) of the [^225Ac(macropa)]^+ complex were injected into the tail vein of each mouse. After injection, mice were allowed to recover and roam freely in their cages, and were euthanized by CO2 inhalation at 15 min, 1 h, or 5 h (n=3 at each time point) post-injection. Blood was collected by cardiac puncture and placed into an appropriate test tube for scintillation counting. Tissues collected included heart, liver, kidneys, lungs, small intestine, large intestine, brain, bladder, spleen, stomach, pancreas, bone, thyroid, tail, urine, and feces. Tissues were weighed and then counted with a calibrated gamma counter (Packard, Cobra II model 5002) using three energy windows: 60-120 keV (window A), 180-260 keV (window B), and 400-480 keV (window C). Counting was performed both immediately after sacrifice and after 7 days; counts were decay corrected from the time of injection and then converted to the percentage of injected dose (% ID) per gram of tissue (% ID/g). No differences were noted between the data; therefore, the biodistributions are reported using the data acquired immediately using window A.
The biodistribution studies of [^225Ac(DOTA)]^− and ^225Ac(NO3)3 were carried out as described above for [^225Ac(macropa)]^+, with the following modifications. [^225Ac(DOTA)]^− was prepared by adding ^225Ac(NO3)3 (338 μL, 1.1 MBq) to a solution of DOTA (100 μg, 20 mg/mL in H2O) in NH4OAc (467 μL, 0.15 M, pH 7). The pH of the solution was adjusted to 7 using NH4OAc (150 μL, 1 M, pH 7) and the solution was heated at 85° C. for 45 min. RCY>99% was confirmed by TLC as described above. [^225Ac(DOTA)]^− was diluted with saline to a final concentration of 0.05 MBq/100 μL, and 100 μL were injected into each mouse. ^225Ac(NO3)3 (˜58 μL, 0.4 MBq) was diluted and injected in the same manner as [^225Ac(DOTA)]^−. One mouse that was to be euthanized at the 5 h time point in the [^225Ac(DOTA)]^− study died shortly after injection. In the same manner, one mouse that was to be euthanized at the 1 h time point in the ^225Ac(NO3)3 study died.
The in vivo stability [^225Ac(macropa)]^+ was examined by comparing its biodistribution to those of ^225Ac(NO3)3 and [^225Ac(DOTA)]^−. C57BL/6 mice were injected via tail vein with 10-50 kBq of each radiometal complex and were sacrificed after 15 min, 1 h, or 5 h. The amount of ^225Ac retained in each organ was quantified by gamma counting and reported as the percent of injected dose per gram of tissue (% ID/g). The results of these studies are compiled in Tables 1-3. Inadequate stability of an ^225Ac complex leading to the loss of radioisotope in vivo is manifested by the accumulation of ^225Ac in the liver, spleen, and bone of mice.^[11,12,32] […] The biodistribution profile of [^225Ac(macropa)]^+ (FIG. 3B) differs markedly from that of ^225Ac(NO3)3. […]

[1] = 15 min after i.v. injection, energy window A (60-120 keV)
[2] = 15 min after i.v. injection, energy window B (180-260 keV)
[3] = 15 min after i.v. injection, energy window C (400-480 keV)
[4] = 1 h after i.v. injection, energy window A (60-120 keV)
[5] = 1 h after i.v. injection, energy window B (180-260 keV)

With O=[N+]([O-])[O-].O=[N+]([O-])[O-].O=[N+]([O-])[O-].[225Ac] [^225Ac(NO3)3] the “% ID/g in bladder” value [1] was 1.477 % ID/g, the “% ID/g in blood” value [1] was 40.966 % ID/g and the “% ID/g in bone (femur + joint)” value [1] was 2.764 % ID/g. For the same molecule, the “% ID/g in brain” value [1] was 0.614 % ID/g, the “% ID/g in feces” value [1] was 0.240 % ID/g and the “% ID/g in heart” value [1] was 8.557 % ID/g. For the same molecule, the “% ID/g in kidneys” value [1] was 10.468 % ID/g, the “% ID/g in large intestines” value [1] was 1.116 % ID/g and the “% ID/g in liver” value [1] was 22.899 % ID/g. For the same molecule, the “% ID/g in lungs” value [1] was 12.757 % ID/g, the “% ID/g in pancreas” value [1] was 2.366 % ID/g and the “% ID/g in small intestines” value [1] was 2.002 % ID/g. For the same molecule, the “% ID/g in spleen” value [1] was 22.733 % ID/g, the “% ID/g in stomach” value [1] was 2.348 % ID/g and the “% ID/g in tail” value [1] was 7.459 % ID/g. For the same molecule, the “% ID/g in thyroids” value [1] was 4.391 % ID/g, the “% ID/g in urine” value [1] was 5.527 % ID/g and the “% ID/g in bladder” value [2] was 1.6996 % ID/g. For the same molecule, the “% ID/g in blood” value [2] was 41.5628 % ID/g, the “% ID/g in bone (femur + joint)” value [2] was 2.7487 % ID/g and the “% ID/g in brain” value [2] was 0.6536 % ID/g. The “% ID/g in feces” value [2] was 0.3857 % ID/g, the “% ID/g in heart” value [2] was 8.3605 % ID/g and the “% ID/g in kidneys” value [2] was 9.6424 % ID/g. The “% ID/g in large intestines” value [2] was 1.1570 % ID/g, the “% ID/g in liver” value [2] was 23.6091 % ID/g and the “% ID/g in lungs” value [2] was 12.9714 % ID/g. For the same molecule, the “% ID/g in pancreas” value [2] was 2.2821 % ID/g, the “% ID/g in small intestines” value [2] was 1.9641 % ID/g and the “% ID/g in spleen” value [2] was 24.0497 % ID/g. The “% ID/g in stomach” value [2] was 2.3704 % ID/g, the “% ID/g in tail” value [2] was 8.0722 % ID/g and the “% ID/g in thyroids” value [2] was 9.6295 % ID/g. For the same molecule, the “% ID/g in urine” value [2] was 5.0951 % ID/g, the “% ID/g in bladder” value [3] was 1.9351 % ID/g and the “% ID/g in blood” value [3] was 42.3521 % ID/g. For the same molecule, the “% ID/g in bone (femur + joint)” value [3] was 3.4560 % ID/g, the “% ID/g in brain” value [3] was 0.6755 % ID/g and the “% ID/g in feces” value [3] was 0.4896 % ID/g. The “% ID/g in heart” value [3] was 9.0992 % ID/g, the “% ID/g in kidneys” value [3] was 14.2266 % ID/g and the “% ID/g in large intestines” value [3] was 1.5716 % ID/g. The “% ID/g in liver” value [3] was 24.1147 % ID/g, the “% ID/g in lungs” value [3] was 14.4797 % ID/g and the “% ID/g in pancreas” value [3] was 2.4405 % ID/g. For the same molecule, the “% ID/g in small intestines” value [3] was 2.0956 % ID/g, the “% ID/g in spleen” value [3] was 25.4263 % ID/g and the “% ID/g in stomach” value [3] was 2.4232 % ID/g. The “% ID/g in tail” value [3] was 9.1381 % ID/g, the “% ID/g in thyroids” value [3] was 3.5934 % ID/g and the “% ID/g in urine” value [3] was 19.8282 % ID/g. For the same molecule, the “% ID/g in bladder” value [4] was 0.9047 % ID/g, the “% ID/g in blood” value [4] was 20.8234 % ID/g and the “% ID/g in bone (femur + joint)” value [4] was 2.4707 % ID/g. The “% ID/g in brain” value [4] was 0.2995 % ID/g, the “% ID/g in feces” value [4] was 0.2189 % ID/g and the “% ID/g in heart” value [4] was 4.4261 % ID/g. The “% ID/g in kidneys” value [4] was 7.2170 % ID/g, the “% ID/g in large intestines” value [4] was 0.6035 % ID/g and the “% ID/g in liver” value [4] was 39.8269 % ID/g. For the same molecule, the “% ID/g in lungs” value [4] was 8.2412 % ID/g, the “% ID/g in pancreas” value [4] was 2.1771 % ID/g and the “% ID/g in small intestines” value [4] was 1.5594 % ID/g. For the same molecule, the “% ID/g in spleen” value [4] was 34.8831 % ID/g, the “% ID/g in stomach” value [4] was 1.6211 % ID/g and the “% ID/g in tail” value [4] was 5.7939 % ID/g. The “% ID/g in thyroids” value [4] was 2.5988 % ID/g, the “% ID/g in urine” value [4] was 4.5194 % ID/g and the “% ID/g in bladder” value [5] was 0.8092 % ID/g. The “% ID/g in blood” value [5] was 21.4460 % ID/g, the “% ID/g in bone (femur + joint)” value [5] was 2.7705 % ID/g and the “% ID/g in brain” value [5] was 0.3247 % ID/g. For the same molecule, the “% ID/g in feces” value [5] was 0.3300 % ID/g, the “% ID/g in heart” value [5] was 4.5832 % ID/g and the “% ID/g in kidneys” value [5] was 6.8770 % ID/g. The “% ID/g in large intestines” value [5] was 0.5629 % ID/g and the “% ID/g in liver” value [5] was 41.0995 % ID/g.
